Measurements: patent US20240336657A1, “G-ALPHA-S PEPTIDE INHIBITORS AND USES THEREOF” (The Regents of the University of California, priority 2021, published 2024)
Positions of bridges follow the written chain, without caps; N, C: chain ends. Non-standard residues stand in square brackets, D forms with d. Residues, ends and D or L forms follow the SMILES beside them. *: point of attachment. NH(CH2CH2O)2(CH2)6Cl = ClCCCCCCOCCOCCN*

How the values were obtained:
Gαs [1] = target: T1, Gαs (Homo sapiens, UniProt P63092); assay: GTPγS binding assay ([35S]GTPγS); assay type: biochemical; set-up: made in house; host or cells: Escherichia coli BL21(DE3)
T1 sequence (P63092 1-380 isoform P63092-2): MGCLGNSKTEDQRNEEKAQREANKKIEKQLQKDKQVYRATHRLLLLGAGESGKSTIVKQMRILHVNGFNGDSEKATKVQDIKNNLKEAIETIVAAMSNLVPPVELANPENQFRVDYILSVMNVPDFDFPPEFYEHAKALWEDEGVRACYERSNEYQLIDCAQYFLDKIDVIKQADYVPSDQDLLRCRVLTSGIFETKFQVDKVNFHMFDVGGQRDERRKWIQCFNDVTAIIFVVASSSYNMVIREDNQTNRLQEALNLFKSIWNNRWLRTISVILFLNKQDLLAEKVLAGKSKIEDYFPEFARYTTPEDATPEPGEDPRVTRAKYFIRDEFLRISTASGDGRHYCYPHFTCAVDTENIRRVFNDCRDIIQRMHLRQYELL
Method: Gα proteins were diluted to 10 μM with dilution buffer (20 mM HEPES 7.5, 150 mM NaCl, 1 mM MgCl2, 2 mM DTT, and 20 μM GDP) and incubated with 5× stocks of cyclic peptides at room temperature for 2 hours. GTPγS binding was initiated by mixing with the reaction buffer at room temperature (50 nM [35S]GTPγS and 100 μM GTPγS in dilution buffer) at room temperature. At various time points, 10 μL of the sample was removed and mixed with 390 μL of ice-cold wash buffer (20 mM HEPES 7.5, 150 mM NaCl, 20 mM MgCl2). The mixture was filtered through a mixed cellulose membrane (25 mm, 0.22 μm). The membrane was washed by ice-cold wash buffer (500 μL×3), put in a 6-mL plastic vial and air-dried (room temperature 1.5 h). 5 mL of CytoScint-ES Liquid Scintillation Cocktail (MP Biomedicals) was added to each vial. After incubation overnight at room temperature, the vial was used for liquid scintillation counting with a LS 6500 Multi-Purpose Scintillation Counter. A standard curve was generated using [35S]GTPγS. The radioactive activity (Counts per minute) of the samples were converted to the GTPγS concentration. The GTPγS binding curves were fitted by the software GraphPad Prism using the following equation to calculate the apparent GTPγS binding rates (kapp): […]
in which “Y” is the concentration of GTPγS that bound to Gα protein at time “X” (minutes).

Gαi = Gαi (Homo sapiens, UniProt P63096); assay: Nucleotide exchange step (GDP dissociation / GTPγS binding); assay type: biochemical; conditions: compared with Gαs
Sequence of Gαi (P63096 whole entry): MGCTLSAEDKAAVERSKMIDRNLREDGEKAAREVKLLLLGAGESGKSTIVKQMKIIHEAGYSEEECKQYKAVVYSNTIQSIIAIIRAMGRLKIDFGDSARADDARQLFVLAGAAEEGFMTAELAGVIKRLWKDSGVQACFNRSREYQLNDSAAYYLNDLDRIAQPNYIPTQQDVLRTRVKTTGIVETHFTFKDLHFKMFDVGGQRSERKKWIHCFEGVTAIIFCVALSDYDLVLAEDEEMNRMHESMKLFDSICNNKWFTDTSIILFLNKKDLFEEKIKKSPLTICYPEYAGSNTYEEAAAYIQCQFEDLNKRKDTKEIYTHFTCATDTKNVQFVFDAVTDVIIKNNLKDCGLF
Method: (§1) Gα proteins were diluted to 400 nM in the EDTA buffer (20 mM HEPES 7.5, 150 mM NaCl, 1 mM EDTA-Na 8.0, 2 mM DTT). [^3H]GDP (1 mCi/mL, 25.2 μM) was added to a final concentration of 1.2 μM, followed by cyclic peptides addition. After incubation at 20° C. for 30 minutes, the same volume of assay buffer ([…] HEPES-Na 7.5, 150 mM NaCl, 2 mM MgCl2, and 1 mM GDP) was added to initiate [^3H]GDP dissociation. At various points, […] was removed and mixed with 390 μL of ice-cold wash buffer (20 mM HEPES 7.5, 150 mM NaCl, 20 mM MgCl2). The mixture was immediately filtered through a mixed cellulose membrane (25 mm, 0.22 μm) held by a microanalysis filter holder (EMD Millipore). The membrane was washed by ice-cold wash buffer (500 μL×3), put in a 6-mL plastic vial and air-dried (room temperature 1.5 h). 5 mL of CytoScint-ES Liquid Scintillation Cocktail was added to each vial. After incubation overnight at room temperature, the vial was used for liquid scintillation counting with a LS 6500 Multi-Purpose Scintillation Counter.
Gα proteins were diluted to 10 μM with dilution buffer (20 mM HEPES 7.5, 150 mM NaCl, 1 mM MgCl2, 2 mM DTT, and 20 μM GDP) and incubated with 5× stocks of cyclic peptides at room temperature for 2 hours. GTPγS binding was initiated by mixing with the reaction buffer at room temperature (50 nM [35S]GTPγS and 100 μM GTPγS in dilution buffer) at room temperature. […]

GDP-bound Gαs = target: T2, GDP-bound Gαs (Homo sapiens, UniProt P63092); assay: Bio-layer interferometry (BLI) binding kinetics; conditions: GDP/Gαs
T2 construct: hexahistidine (N, cleaved yes); made in house; host or cells: Escherichia coli BL21(DE3)
Method: (§2) BLI experiments were performed using an OctetRED384 instrument from ForteBio. All experiments were performed at 25° C. using BLI buffer (10 mM HEPES pH 7.4, 150 mM NaCl, 1 mM MgCl2, 0.05% Tween-20, 0.1% DMSO, 0.2 mM GppNHp or GDP). Cyclic peptides were diluted to a series of concentrations in BLI buffer plus 10 μM Biotin. Assays were conducted in Greiner 384well, black, flat bottom polypropylene plates containing the protein solutions, BLI buffer plus 10 μM Biotin for dissociation, and serial dilutions of cyclic peptides to be tested.
(§3) Biotinylated proteins were immobilized on Streptavidin biosensors by dipping sensors into plate wells containing protein solutions at a concentration of 100-150 nM. Protein loading is around 2-3 nm. Sensors loaded with proteins were moved and dipped into wells with BLI buffer plus 10 μM Biotin to block unlabeled Streptavidin. Association-dissociation cycles of compounds were started by moving and dipping sensors to cyclic peptides dilutions and BLI buffer plus 10 μM Biotin wells alternatively. Association and dissociation times were carefully determined to ensure full association and dissociation.
(§4) Raw kinetic data collected were processed with the Data Analysis software provided by the manufacturer using single reference subtraction in which buffer-only reference was subtracted (For GN13 analysis). Because GD20 analogs have a low level of background binding, we used a double reference subtraction (buffer-only reference and non-protein-loading reference) method to calculate their kinetics values. The resulting data were analyzed based on a 1:1 binding model from which kon and koff values were obtained and then Kd values were calculated.

Gαs [2] = target: T1, Gαs; assay: GDP dissociation assay ([3H]GDP); assay type: biochemical; set-up: made in house; host or cells: Escherichia coli BL21(DE3)
Method: as §1
The GDP dissociation curves were fitted by the software GraphPad Prism using the following equation to calculate the dissociation rates (koff): […]
in which “Y” is the radioactivity (Counts per minute) of the sample at time “X” (minutes), and Y0 is the calculated radioactivity of the sample at the time point 0.

GppNHp-bound Gαs = GppNHp-bound Gαs (Homo sapiens, UniProt P63092); assay: Bio-layer interferometry (BLI) binding kinetics; set-up: hexahistidine (N, cleaved yes); made in house; host or cells: Escherichia coli BL21(DE3); conditions: highest concentration tested
Sequence of GppNHp-bound Gαs (P63092 with tags, fused parts or gaps isoform P63092-2): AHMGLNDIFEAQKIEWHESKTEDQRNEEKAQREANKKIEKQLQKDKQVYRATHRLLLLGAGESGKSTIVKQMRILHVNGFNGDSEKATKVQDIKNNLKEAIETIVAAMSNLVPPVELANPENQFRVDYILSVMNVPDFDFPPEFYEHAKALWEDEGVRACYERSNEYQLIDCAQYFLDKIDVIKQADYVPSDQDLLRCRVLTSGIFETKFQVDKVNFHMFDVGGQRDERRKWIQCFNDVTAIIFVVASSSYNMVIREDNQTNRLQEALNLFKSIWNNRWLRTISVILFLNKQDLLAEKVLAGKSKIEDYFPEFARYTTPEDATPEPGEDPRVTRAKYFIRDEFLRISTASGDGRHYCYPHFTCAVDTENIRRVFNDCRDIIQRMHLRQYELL
Method: as §2, §3, §4

GDP-bound Gαi1 = target: T3, GDP-bound Gαi1 (Homo sapiens, UniProt P63096); assay: Bio-layer interferometry (BLI) binding; conditions: highest concentration tested
T3 construct: hexahistidine (N, cleaved yes); made in house; host or cells: Escherichia coli BL21(DE3)
T3 sequence (P63096 with tags, fused parts or gaps): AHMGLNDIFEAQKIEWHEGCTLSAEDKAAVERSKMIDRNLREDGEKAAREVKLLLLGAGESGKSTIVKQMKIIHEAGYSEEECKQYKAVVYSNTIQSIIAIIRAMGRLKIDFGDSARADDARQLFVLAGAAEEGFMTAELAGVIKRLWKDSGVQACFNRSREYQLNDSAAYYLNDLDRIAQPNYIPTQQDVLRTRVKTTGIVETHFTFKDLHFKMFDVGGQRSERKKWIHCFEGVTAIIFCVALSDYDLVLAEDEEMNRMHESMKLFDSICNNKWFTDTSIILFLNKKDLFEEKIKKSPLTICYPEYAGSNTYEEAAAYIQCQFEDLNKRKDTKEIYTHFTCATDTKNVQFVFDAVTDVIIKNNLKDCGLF
Method: as §2, §3, §4

GppNHp-bound Gαi1 = target: T4, GppNHp-bound Gαi1 (Homo sapiens, UniProt P63096); assay: Bio-layer interferometry (BLI) binding; conditions: highest concentration tested
T4 construct: hexahistidine (N, cleaved yes); made in house; host or cells: Escherichia coli BL21(DE3)
T4 sequence (P63096 with tags, fused parts or gaps): as above
Method: as §2, §3, §4

[3] = system: HeLa cells stably expressing HaloTag; assay: Chloroalkane penetration assay (CAPA); assay type: in vitro ADME, human
Description: We first tested the cell permeability of GD20, as peptide-based chemical probes often suffer from poor cell permeability. […] In order to quantitatively evaluate the cell permeability of GD20, we used a recently developed HaloTag-based assay known as a chloroalkane penetration assay (CAPA) (Figure S6I) (Peraro et al., 2018). HeLa cells stably expressing HaloTag localized to the mitochondrial outer membrane were pulsed with chloroalkane-tagged molecules (ct-molecule), washed, chased with chloroalkane-tagged TAMRA fluorophore (ct-TAMRA), and finally analyzed by flow cytometry. A lower ct-TAMRA fluorescent signal indicates competition from a higher cytosolic concentration of ct-molecule. The carboxyl terminus of GD20 (G15) was conjugated with a chloroalkane tag to make ct-GD20 (FIG. 23A).
The cell lines used for CAPA were HeLa cell lines, generated by Chenoweth and co-workers, that stably express HaloTag exclusively in the cytosol (Peraro et al., 2018). Cells were seeded in a 96-well plate the day before the experiment at a density of 4×10^4 cells per well. The day of the experiment the media was aspirated, and 100 μL of cyclic peptide dilutions in DMEM were added to the cells. Plate was incubated for 19.5 h at 37° C. with 5% CO2. […] The cells were then trypsinized, quenched with DMEM, resuspended in PBS, and analyzed using a benchtop flow cytometer (CytoFLEX, Beckman).

[4] = target: T5, Biotinylated His/Avi-tagged Gαs used in the RaPID selection, GppNHp-bound (human, UniProt P63092 7-394, biotin on the Avi tag (BirA co-expressed)); assay: RaPID comparison selection: peptide-mRNA-cDNA complexes on Gαs-immobilized streptavidin beads, qPCR and sequencing
T5 construct: Immobilized on streptavidin magnetic beads
T5 sequence (P63092 other isoform, or with tags, fused parts or gaps limits assumed): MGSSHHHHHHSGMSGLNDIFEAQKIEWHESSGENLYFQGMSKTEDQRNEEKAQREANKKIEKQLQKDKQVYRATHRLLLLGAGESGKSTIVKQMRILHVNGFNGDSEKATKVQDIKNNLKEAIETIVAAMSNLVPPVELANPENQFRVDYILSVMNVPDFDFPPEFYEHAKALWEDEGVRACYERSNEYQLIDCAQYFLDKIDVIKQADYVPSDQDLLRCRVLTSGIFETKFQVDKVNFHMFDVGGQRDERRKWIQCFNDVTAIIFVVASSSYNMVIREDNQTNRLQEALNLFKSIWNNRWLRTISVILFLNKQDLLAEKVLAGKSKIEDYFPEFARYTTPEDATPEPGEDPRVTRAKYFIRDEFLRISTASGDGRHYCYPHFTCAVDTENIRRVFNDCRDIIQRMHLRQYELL

[5] = target: Biotinylated Avi-tagged WT Gαs (residues 7-380 of the short isoform of human Gαs), GppNHp-bound (human) (UniProt P63092); assay: TR-FRET competition: biotinylated Gαs WT (GppNHp-bound) with His-tagged adenylyl cyclase (VC1/IIC2) as the blocked partner; peptide concentration varied
Sequence of Biotinylated Avi-tagged WT Gαs (residues 7-380 of the short isoform of human Gαs), GppNHp-bound (human) (P63092 other isoform, or with tags, fused parts or gaps limits assumed): as the sequence (P63092 with tags, fused parts or gaps isoform P63092-2) above

[6] = target: T6, Biotinylated Avi-tagged WT Gαs (residues 7-380 of the short isoform of human Gαs), GDP-bound (human, UniProt P63092 7-394, biotin on the Avi tag (BirA)); assay: TR-FRET competition: biotinylated GDP-bound Gαs WT against His-Gβγ(C68S)
T6 construct: Loaded with GDP; Same polypeptide as m7, other nucleotide state; also called biotinylated Gαs WT
T6 sequence (P63092 other isoform, or with tags, fused parts or gaps limits assumed): as the sequence (P63092 with tags, fused parts or gaps isoform P63092-2) above
Method: (§5) Biotinylated avi-Gαs (6-end, WT) and avi-Gαi (FL, WT) were diluted to 32 nM (8×) using assay buffer (1× PBS 7.4, 2 mM DTT, 0.1% BSA, 2 mM MgCl₂, 0.05% Tween plus 0.5 mM GDP), followed by mixing with a same volume of 8× streptavidin XL665 stock (32 nM in the assay buffer). 8× His-Gβ/γ (C68S) stock (16 nM) and 8× anti-6His-Tb cryptate stock (0.4 μg/mL) were added into the Gα/XL665 mixtures. Finally, 2× stocks of cyclic peptides were added with the protein mixtures. After incubation at room temperature for 2 hour at room temperature. […] FRET Signal was calculated as the ratio of [Read B]/[Read A].

[7] = target: T6, Biotinylated Avi-tagged WT Gαs …; assay: TR-FRET competition: biotinylated Gαs or Gαi (GDP) against His-Gβγ(C68S)
Method: as §5

CC[C@H](C)[C@@H]1NC(=O)[C@H](CC(C)C)NC(=O)[C@@H](Cc2ccc(O)cc2)NC(=O)CSC[C@@H](C(=O)NCC(N)=O)NC(=O)[C@@H]2CCCN2C(=O)[C@H](CC(C)C)NC(=O)[C@H](CC(N)=O)NC(=O)[C@H](Cc2ccccc2)NC(=O)[C@H](C)NC(=O)[C@H](Cc2c[nH]c3ccccc23)NC(=O)[C@H](CCC(N)=O)NC(=O)[C@H](CCCNC(=N)N)NC(=O)[C@H](Cc2ccccc2)NC(=O)[C@H]([C@@H](C)O)NC1=O [GD20] ({CH2CO}-[dY]LITFRQWAFNLPCG-NH2; thioether N-14)
effect on the apparent rate of GTPγS binding (kapp) to Gαs (Gαs [1]): drastically reducing | sensitivity of the nucleotide exchange step of Gαi (Gαi): much less sensitive | Kd (GDP-bound Gαs): 0.0314 ± 0.0007 µM | koff (GDP-bound Gαs): 0.00343 s⁻¹ | kon (GDP-bound Gαs): 109000 M⁻¹ s⁻¹ | effect on Gαs GDP dissociation rates (koff) (Gαs [2]): drastically reducing | binding to GppNHp-bound Gαs (GppNHp-bound Gαs): no detectable binding | binding to GDP-bound Gαi1 (GDP-bound Gαi1): no detectable binding | binding to GppNHp-bound Gαi1 (GppNHp-bound Gαi1): no detectable binding

CC[C@H](C)[C@@H]1NC(=O)[C@H](CC(C)C)NC(=O)[C@@H](Cc2ccc(O)cc2)NC(=O)CSC[C@@H](C(=O)NCC(=O)NCCOCCOCCCCCCCl)NC(=O)[C@@H]2CCCN2C(=O)[C@H](CC(C)C)NC(=O)[C@H](CC(N)=O)NC(=O)[C@H](Cc2ccccc2)NC(=O)[C@H](C)NC(=O)[C@H](Cc2c[nH]c3ccccc23)NC(=O)[C@H](CCC(N)=O)NC(=O)[C@H](CCCNC(=N)N)NC(=O)[C@H](Cc2ccccc2)NC(=O)[C@H]([C@@H](C)O)NC1=O [ct-GD20] ({CH2CO}-[dY]LITFRQWAFNLPCG-{NH(CH2CH2O)2(CH2)6Cl}; thioether N-14)
cell permeability (CAPA) [3]: cell permeable

B1: GN10 (peptide)
peptide: Ac-[dY]HEQFDNFCDLWCG-NH2
modifications: thioether (positions not given here); also: thioether partner Cys9 or Cys13 not settled
fold selectivity for GppNHp-bound over GDP-bound Gαs [4]: > 100 fold | IC50 (read off the curve) [5]: 0.2 µM

B2: GD20-F10L (peptide)
peptide: {CH2CO}-[dY]LITFRQWALNLPCG-NH2
modifications: thioether N-14
SMILES: CC[C@H](C)[C@@H]1NC(=O)[C@H](CC(C)C)NC(=O)[C@@H](Cc2ccc(O)cc2)NC(=O)CSC[C@@H](C(=O)NCC(N)=O)NC(=O)[C@@H]2CCCN2C(=O)[C@H](CC(C)C)NC(=O)[C@H](CC(N)=O)NC(=O)[C@H](CC(C)C)NC(=O)[C@H](C)NC(=O)[C@H](Cc2c[nH]c3ccccc23)NC(=O)[C@H](CCC(N)=O)NC(=O)[C@H](CCCNC(=N)N)NC(=O)[C@H](Cc2ccccc2)NC(=O)[C@H]([C@@H](C)O)NC1=O
notes: Single substitution F10L of GD20; also called cell permeable GD20 analog F10L
IC50 [6]: 0.014 µM | fold selectivity for Gαs over Gαi [7]: 100 fold

B3: GN15 (peptide)
peptide: {CH2CO}-[dY]KYWDFDNFQELYCG-NH2
modifications: thioether N-14
SMILES: CC(C)C[C@@H]1NC(=O)[C@H](CCC(=O)O)NC(=O)[C@H](CCC(N)=O)NC(=O)[C@H](Cc2ccccc2)NC(=O)[C@H](CC(N)=O)NC(=O)[C@H](CC(=O)O)NC(=O)[C@H](Cc2ccccc2)NC(=O)[C@H](CC(=O)O)NC(=O)[C@H](Cc2c[nH]c3ccccc23)NC(=O)[C@H](Cc2ccc(O)cc2)NC(=O)[C@H](CCCCN)NC(=O)[C@@H](Cc2ccc(O)cc2)NC(=O)CSC[C@@H](C(=O)NCC(N)=O)NC(=O)[C@H](Cc2ccc(O)cc2)NC1=O
fold selectivity for GppNHp-bound over GDP-bound Gαs [4]: > 100 fold
